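Compound exposure: 48 hours, 5 concentrations, 96-well plates. GI50 = concentration required for 50% inhibition of growth.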 Active and inactive are the calls of the source. Cut-off read from the data, not from the text of the source: active = GI50 up to about 1.1 µM and inactive = higher.
Key:
Assay in all cases: NCI-60 cell line screen, 48 h
[1] = tested on: MDA-MB-435
[2] = tested on: EKVX
[3] = tested on: HOP-92
[4] = tested on: HCT-15
[5] = tested on: SN12C
[6] = tested on: RXF 393
[7] = tested on: NCI/ADR-RES
[8] = tested on: TK-10
[9] = tested on: MDA-MB-231
[10] = tested on: OVCAR-8
[11] = tested on: OVCAR-5
[12] = tested on: HCT-116
[13] = tested on: M14
[14] = tested on: HCC 2998
[15] = tested on: NCI-H460
[16] = tested on: PC-3
[17] = tested on: NCI-H23
[18] = tested on: SNB-19
[19] = tested on: U-251

Compound | GI50 [1] | GI50 [2] | GI50 [3] | GI50 [4] | GI50 [5] | GI50 [6] | GI50 [7] | GI50 [8] | GI50 [9] | GI50 [10] | GI50 [11] | GI50 [12] | GI50 [13] | GI50 [14] | GI50 [15] | GI50 [16] | GI50 [17] | GI50 [18] | GI50 [19]
CC12CN(CC[N+](C)(C)C)CC1(C)C1CCC2O1 (stereo not given) | > 100 µM (inactive) | > 100 µM (inactive) | > 100 µM (inactive) | > 100 µM | > 100 µM (inactive) | > 100 µM (inactive) | > 100 µM (inactive) | > 100 µM (inactive) | > 100 µM (inactive) | > 100 µM (inactive) | > 100 µM (inactive) | > 100 µM (inactive) | > 100 µM (inactive) | > 100 µM (inactive) | > 100 µM (inactive) | > 100 µM (inactive) | > 100 µM (inactive) | > 100 µM (inactive) | > 100 µM (inactive)
CCOC(=O)N(C)CCC1CC=CC(=O)C1c1cccc(OC)c1OC (stereo not given) | 10.6 µM (inactive) | 25.8 µM (inactive) | 65.3 µM (inactive) | 14 µM | 17.3 µM (inactive) | 10.5 µM (inactive) | 19.8 µM (inactive) | 22.5 µM (inactive) | 26.1 µM (inactive) | 21.3 µM (inactive) | 17.3 µM (inactive) | 14.4 µM (inactive) | 19.5 µM (inactive) | 13.1 µM (inactive) | 16.7 µM (inactive) | 12.2 µM (inactive) | 14 µM (inactive) | 23.3 µM (inactive) | 16.7 µM (inactive)
CC(O)CN1c2ccccc2Sc2ccc(Cl)cc21 (stereo not given) | > 10 µM (inactive) | > 10 µM (inactive) | > 10 µM (inactive) | > 10 µM | > 10 µM (inactive) | > 10 µM (inactive) | > 10 µM (inactive) | > 10 µM (inactive) | > 10 µM (inactive) | > 10 µM (inactive) | > 10 µM (inactive) | > 10 µM (inactive) | > 10 µM (inactive) | > 10 µM (inactive) | > 10 µM (inactive) | > 10 µM (inactive) | > 10 µM (inactive) | > 10 µM (inactive) | > 10 µM (inactive)
CC(=O)C1=C(C)N(c2ccc(C)cc2)C2(O)C3=C(C(=O)c4ccccc4C3=O)C(O)=CC12Cl (stereo not given) | 3.79 µM (inactive) | 54.1 µM (inactive) | 43.8 µM (inactive) | 19.8 µM | 17 µM (inactive) | 9.73 µM (inactive) | 5.65 µM (inactive) | 28.4 µM (inactive) | 31.8 µM (inactive) | 14.1 µM (inactive) | 25.5 µM (inactive) | 30.8 µM (inactive) | 40.7 µM (inactive) | 12.7 µM (inactive) | 20.9 µM (inactive) | 8.85 µM (inactive) | 12.7 µM (inactive) | 12.8 µM (inactive) | 11.7 µM (inactive)
C=C1C(=O)O[C@@H]2[C@H]1C[C@H](I)[C@@]1(C)CC[C@H](O1)[C@](C)(I)CCCC(C)[C@@H]2O (stereo not given in full) | 4.9 µM (inactive) | 8.95 µM (inactive) | 1.54 µM (inactive) | 1.76 µM | 4.98 µM (inactive) | 1.69 µM (inactive) | 3.17 µM (inactive) | 1.75 µM (inactive) | 4.22 µM (inactive) | 2.96 µM (inactive) | 8.69 µM (inactive) | 2.88 µM (inactive) | 4.68 µM (inactive) | 12.2 µM (inactive) | 14.5 µM (inactive) | 6.03 µM (inactive) | 7.43 µM (inactive) | 16.4 µM (inactive) | 6.07 µM (inactive)
CC(=O)O[C@H]1C(=O)[C@@]2(C)[C@H]([C@H](OC(=O)c3ccccc3)[C@]3(O)C[C@H](OC(=O)[C@H](O)[C@@H](NC(=O)c4cccc(N=[N+]=[N-])c4)c4ccccc4)C(C)=C1C3(C)C)[C@]1(OC(C)=O)CO[C@@H]1C[C@@H]2O | < 0.0025 µM (active) | > 7.59 µM (inactive) | 0.0109 µM (active) | 0.662 µM | 0.0164 µM (active) | 0.045 µM (active) | 8.32 µM (inactive) | 0.117 µM (active) | 0.0149 µM (active) | 0.00798 µM (active) | 0.00893 µM (active) | < 0.0025 µM (active) | 0.00908 µM (active) | 0.0634 µM (active) | 0.00859 µM (active) | 0.0047 µM (active) | 0.00641 µM (active) | 0.0129 µM (active) | 0.00629 µM (active)
O=C1Oc2ccccc2C1C/C(=N\Nc1ccccc1)c1ccccc1O (stereo not given) | 27.2 µM (inactive) | 26.5 µM (inactive) | 25.6 µM (inactive) | 34.3 µM | 42 µM (inactive) | 53.7 µM (inactive) | 20.8 µM (inactive) | 48.9 µM (inactive) | 28.9 µM (inactive) | 32.4 µM (inactive) | > 100 µM (inactive) | 28.4 µM (inactive) | 50.8 µM (inactive) | 34.8 µM (inactive) | 34.4 µM (inactive) | 30.2 µM (inactive) | 22.2 µM (inactive) | > 100 µM (inactive) | 40.3 µM (inactive)
CC(=O)CC12NC(=O)N(C)N=C1N(C)C(=O)N(C)C2=O (stereo not given) | 17 µM (inactive) | > 100 µM (inactive) | 95.1 µM (inactive) | 57.7 µM | 33.1 µM (inactive) | 68.1 µM (inactive) | 29.4 µM (inactive) | > 100 µM (inactive) | 43 µM (inactive) | 32.1 µM (inactive) | > 100 µM (inactive) | 35.7 µM (inactive) | 73.5 µM (inactive) | 82.8 µM (inactive) | 65.9 µM (inactive) | 30.8 µM (inactive) | 38.7 µM (inactive) | > 10 µM (inactive) | 34.4 µM (inactive)
C/C(=N/NC(=S)Nc1ccccc1Cl)c1ccccn1 | 0.665 µM (active) | 0.098 µM (active) | 1.03 µM (active) | < 0.0165 µM | 0.129 µM (active) | 1.41 µM (inactive) | 0.0914 µM (active) | 0.113 µM (active) | < 0.0164 µM (active) | 0.0206 µM (active) | < 0.0211 µM (active) | < 0.0129 µM (active) | < 0.0211 µM (active) | 2.98 µM (inactive) | 0.0382 µM (active) | < 0.0143 µM (active) | < 0.0161 µM (active) | 1.79 µM (inactive) | 0.0418 µM (active)
N#Cc1nc(C#N)n(C(=O)c2ccccc2)c1NC(=O)c1ccccc1 | > 100 µM (inactive) | > 100 µM (inactive) | > 100 µM (inactive) | > 100 µM | > 100 µM (inactive) | > 100 µM (inactive) | > 100 µM (inactive) | > 100 µM (inactive) | > 100 µM (inactive) | > 100 µM (inactive) | > 100 µM (inactive) | > 100 µM (inactive) | > 100 µM (inactive) | > 100 µM (inactive) | > 100 µM (inactive) | > 100 µM (inactive) | > 100 µM (inactive) | > 100 µM (inactive) | > 100 µM (inactive)
N#Cc1c(C#N)c(-c2ccco2)n(/N=C/c2ccco2)c1N | > 100 µM (inactive) | 20.1 µM (inactive) | 11.2 µM (inactive) | 29.6 µM | 32.6 µM (inactive) | 19.9 µM (inactive) | 65.9 µM (inactive) | 96.6 µM (inactive) | 11.3 µM (inactive) | 23.3 µM (inactive) | > 100 µM (inactive) | 52.8 µM (inactive) | > 100 µM (inactive) | > 100 µM (inactive) | > 100 µM (inactive) | > 100 µM (inactive) | > 100 µM (inactive) | 24.9 µM (inactive) | 24.6 µM (inactive)
O=P(O)(O)c1ccccc1Oc1ccccc1 | > 100 µM (inactive) | > 100 µM (inactive) | > 100 µM (inactive) | > 100 µM | > 100 µM (inactive) | > 100 µM (inactive) | > 100 µM (inactive) | > 100 µM (inactive) | > 100 µM (inactive) | > 100 µM (inactive) | > 100 µM (inactive) | > 100 µM (inactive) | > 100 µM (inactive) | > 100 µM (inactive) | > 100 µM (inactive) | > 100 µM (inactive) | > 100 µM (inactive) | > 100 µM (inactive) | > 100 µM (inactive)
Cc1ccc(N2CCC3(CC2)OCCO3)cc1 | > 100 µM (inactive) | > 100 µM (inactive) | > 100 µM (inactive) | > 100 µM | > 100 µM (inactive) | > 100 µM (inactive) | > 100 µM (inactive) | > 100 µM (inactive) | > 100 µM (inactive) | > 100 µM (inactive) | > 100 µM (inactive) | > 100 µM (inactive) | > 100 µM (inactive) | > 100 µM (inactive) | > 100 µM (inactive) | > 100 µM (inactive) | > 100 µM (inactive) | > 100 µM (inactive) | > 100 µM (inactive)
Fc1ccccc1C1SCC2=Nc3ccccc3CN21 (stereo not given) | > 100 µM (inactive) | > 100 µM (inactive) | > 100 µM (inactive) | > 100 µM | > 100 µM (inactive) | > 100 µM (inactive) | > 100 µM (inactive) | > 100 µM (inactive) | > 100 µM (inactive) | > 100 µM (inactive) | 92.9 µM (inactive) | 48.5 µM (inactive) | > 100 µM (inactive) | > 100 µM (inactive) | > 100 µM (inactive) | > 100 µM (inactive) | > 100 µM (inactive) | > 100 µM (inactive) | > 100 µM (inactive)
CCCSc1ccc2[nH]c(N3C(=O)/C(=C/c4ccc(SC)cc4)N=C3c3ccccc3)cc2c1 | 5.05 µM (inactive) | 18.2 µM (inactive) | > 50 µM (inactive) | 22.1 µM | > 40.5 µM (inactive) | 19.9 µM (inactive) | > 33 µM (inactive) | 29 µM (inactive) | > 50 µM (inactive) | > 44.6 µM (inactive) | > 50 µM (inactive) | 19.9 µM (inactive) | 21.4 µM (inactive) | 14.1 µM (inactive) | 18.3 µM (inactive) | 25.9 µM (inactive) | > 34.4 µM (inactive) | 29.1 µM (inactive) | 27.1 µM (inactive)
